In patent publication US6080425A, “Boron compounds and complexes as skin-rejuvenating agents” (TopGene, Inc., priority 1998, dated 2000):
“Also recorded” adds a separate entry of the source.

Key:
[1] = system: normal human fibroblasts; test: Multi-parameter analysis of biological activity, labeling cells with tritiated Uridine, Thymidine, Leucine and Proline (FIG. 7); type: cell-based; settings: labeling for 8 hours
Source text: FIG. 7 is a graph depicting a multi-parameter analysis of biological activity of complex B.
(§1) FIGS. 3-7 illustrate results of experiments designed to elucidate some of the biological properties that may be present in contemplated boron compounds/complexes. In these examples, we studied the action of two boron complexes: sodium fructo-borate (SFB) and sodium salicylato-borate (SSB), upon normal human fibroblasts, in comparison to untreated fibroblasts and ones treated with boric acid (BA, uncomplexed with any ligand). FIG. 3 depicts results of a single dose treatment of human fibroblasts with increasing concentrations of BA, SFB and SSB for 72 hours in order to determine their cytotoxic effects (by MTT assay).
FIG. 7 depicts a multi-parameter analysis of biological activity of SFB.

[2] = system: normal human fibroblasts; test: H3Proline incorporation in human fibroblasts (FIG. 4); type: cell-based; settings: single dose, 72 hours, vs BA, SFB, SSB
Description: FIG. 4 is a graph depicting experimental results of H3Proline incorporation (in human fibroblasts) upon treatment with A, B, and C compared to untreated cells.
FIG. 4 depicts results from treatment of normal human fibroblasts with a single dose of BA, SFB and SSB for 72 hours, whereupon the final degree of incorporation of H3Proline was determined. The degree of H3Proline incorporation is a measure of the ongoing biosynthesis of collagen in treated cells.

[3] = system: normal human fibroblasts; test: Cytotoxicity on normal human fibroblasts by MTT assay (FIG. 3); type: cell-based; settings: 72 hours; for cytotoxic effects (MTT assay), in words: single dose, normal human fibroblasts, FIG. 3: increasing concentrations
Source text: as §1

[4] = system: human fibroblasts; test: H3Proline/H3Leucine incorporation in human fibroblasts (FIG. 5); type: cell-based; settings: single dose, compared to untreated cells
[5] = system: normal human fibroblasts; test: Collagen synthesis: ratio of H3Proline to H3Thymidine incorporation in human fibroblasts (FIG. 6); type: cell-based; settings: single dose, 72 hours
Description: FIG. 6 is a graph depicting experimental results of increase of collagen synthesis (measured by determination of ratio between incorporation of H3Proline and H3Thymidine) in human fibroblasts by treating them with A, B and C, compared to untreated cells.
FIG. 6 depicts the results of a single dose treatment of normal human fibroblasts with the selected compounds for 72 hours, in which case the increase of collagen synthesis was calculated by ratio between incorporation of H3Proline over the incorporation of H3Thymidine under the same experimental conditions. In this experiment, SFB was best at the concentration of 1 ug/ml, while at the concentration of 10 ug/ml its activity was next to BA. […] These properties are of special value for skin-rejuvenation purposes.

[6] = system: cat fleas; settings: ingestion by cat fleas; cited from earlier work
[7] = system: HIV; settings: cited from earlier work
[8] = system: chick embryo pelvic cartilage; settings: cited from earlier work
[9] = system: neutrophiles; settings: intact neutrophiles stimulated by thrombin or leukotriene B4; extracellular addition; cited from earlier work
[10] = system: human platelets; settings: intact human platelets stimulated by thrombin or leukotriene B4; extracellular addition; cited from earlier work
[11] = system: rat cerebral microsomal preparations; settings: cited from earlier work
[12] = same concentration, great molar excess of glucose in culture medium

Compound: sodium fructo-borate [SFB]
- overall effects (tritiated Uridine, Thymidine, Leucine and Proline labeling), in words [1]: quite favorable and beneficial
- degree of incorporation of H3Proline (measure of collagen biosynthesis), in words [2]: most beneficial effect
- fold less toxic than BA (boric acid) ([3]; 100 ug/ml, MTT assay): ~4 times
- cytotoxic effects (MTT assay), in words [3]: least toxic; also recorded: least toxicity
- cytotoxic effects (MTT assay), in words ([3]; listed as sodium fructo-borate): minimal cytotoxic effects
- cytotoxic effects (MTT assay), in words ([3]; listed as sodium fructoborate): considerably less toxic than boric acid
- preferred incorporation of H3Proline over H3Leucine, in words [4]: quite close
- increase of collagen synthesis (ratio H3Proline/H3Thymidine incorporation), in words ([5]; 1 ug/ml): best
- increase of collagen synthesis (ratio H3Proline/H3Thymidine incorporation), in words ([5]; 10 ug/ml): next to BA

Compound: O.O.O.O.O.O.O.O.O.O.[Na+].[Na+].[O-]B1OB2OB([O-])OB(O1)O2 [sodium borate, reference compound]
- cytotoxic effects (MTT assay), in words [3]: minimal cytotoxic effects

Compound: O=C1O[B-]2(OC(=O)c3ccccc3O2)Oc2ccccc21 [SSB, sodium salicylato-borate]
- preferred incorporation of H3Proline over H3Leucine, in words [4]: best performance

Compound: O.O.O.O.O=BOB1OB(OB=O)OB2OB([O-])OB([O-])OB(O1)O2.[Na+].[Na+] [disodium octaborate tetrahydrate]
- larvicidal effects [6]: Larvicidal effects

Compound: CC(C)[C@@H](N)C(=O)O[C@H](C)[C@@H]1C/C=C\CC[C@H](O)C(C)(C)[C@@H]2CC[C@@H](C)[C@@]3(O2)O[B-]24O[C@@H](C(=O)O1)[C@]1(O[C@@H](CC[C@H]1C)C(C)(C)[C@H](O)CCC[C@@H]1C[C@H](OC(=O)[C@@H]3O2)[C@@H](C)O1)O4.[H+] [boromycin]
- anti-HIV activity [7]: anti-HIV antibiotic

Compound: OB(O)O [BA, boric acid]
- intracellular synthesis of proteoglycans, collagen and TNF-alpha ([8]; 1-3% aqueous boric acid): strongly decreases
- release of proteoglycans, collagen and TNF-alpha into the culture medium ([8]; 1-3% aqueous boric acid): induces release
- intracellular protein synthesis [8, 12]: does not decrease
- protein secretion into the culture medium [8, 12]: still stimulates
- larvicidal effects [6]: Larvicidal effects

Compound: NCCOB(c1ccccc1)c1ccccc1 [Example 2-APB, 2-amonoethoxydiphenyl borate]
- inhibition of cytosolic Ca rise [9]: inhibited
- inhibition of cytosolic Ca rise [10]: inhibited
- inhibition of Ins(1,4,5)P3-induced Ca release [11]: inhibited
